Earlier results on two molecules are cited in patent publication US20020110580A1, “Nutritional composition for improving the efficacy of a lipase inhibitor” (priority 2000, published 2002).

For series [1] the following is noted: individuals receiving CCK.

With `CCCCCCCCCCC[C@@H](C[C@@H]1OC(=O)[C@H]1CCCCCC)OC(=O)[C@H](CC(C)C)NC=O` [Orlistat, tetrahydrolipstatin], the “gastric emptying of both the solid and fat phases of a mixed meal” value is “accelerated”. The CCK release result (mixed meal) is “decreased”.

B1: Cholecystokinin (peptide, UniProt P06307 21-115, looked up)
Cholecystokinin: QPVPPADPAGSGLQRAEEAPRRQLRVSQRTDGESRAHLGALLARYIQQARKAPSGRMSIVKNLQNLDPSHRISDRDYMGWMDFGRRSAEEYEYPS
modifications: Cholecystokinin
For the molecule B1, in series [1], the “reduction in caloric intake” value is on record as 16-22%.
